From patent publication US8569450B2, “CD3 epsilon immunogens and antibodies” (Health Research Inc., priority 2010, dated 2013)

Tested on: anti-human detection antibody
Test: CD3ε peptide ELISA, alkaline phosphatase based, peptides coated on Costar high binding plates
Parameters: species or system chicken
Settings: single peptide coated on plate, plate blank subtracted, both peptides tested under the same conditions
Text: The capture antibody of the CDR assay was produce by inoculation with 2 peptides. The sequence of these two peptides is AKAKPVTRGAGA (SEQ ID NO: 1) and LYSGLNQRRI (SEQ ID NO: 2) respectively. To determine the key immune-dominate region of the peptide, 12 variants of original peptide 1 (SEQ ID NO: 1) and 10 variants of original peptide 2 (SEQ ID NO: 2) were made with alanine substitution (or valine when alanine is the original amino acid). These were produced by GenScript, shipped, in solid form, at room temperature, to our lab and were dissolved in 1 ml of 0.05 TBS buffer.
Single peptides were coated on to Costar high binding 96 well plates at a concentration of 10 μg and 2 μg in 0.05 TBS buffer pH 7.4 in quadruplicate and tested in an alkaline phoshotase based ELISA. Plate blanks were subtracted from the optical densities obtained for each peptide. The peptides are compared to the original by percent of original signal. As noted in Table 1 the twelfth substitution was both an alanine at position twelve and a glutamic acid for threonine at position seven. This was an inadvertent oversight by the manufacturer.
The results from using a coating concentration of 2 μg/ml were similar.
The OD for original peptide 1 (SEQ ID NO: 1) was 1.5 and peptide 2 (SEQ ID NO: 2) elicited a signal of 1.0 when tested under the same conditions.

Row | Sequence | OD (optical density) by ELISA
1 | LYSGLNQRRI (listed as Homo sapiens) [peptide 2, CD3 epsilon immunogen peptide, 10AA] | 1.0
2 | AKAKPVTRGAGA (listed as Homo sapiens) [original peptide 1, CD3 epsilon immunogen peptide, 12AA] | 1.5
